{
  "source": "patent US10201174B2",
  "about": "“Process for reducing contaminating Michael acceptor levels in oxycodone and other compositions” (Controlled Chemicals, Inc., priority 2005, dated 2019)",
  "origin": "cited, not measured here",
  "details": "thiol group ionisation, aqueous",
  "data": [
    {"smiles": "O=C(O)c1cc(S)ccc1[N+](=O)[O-]", "note": "[5-mercapto-2-nitro-benzoic acid]", "values": [
      {"measurement": "pKSH / pK of the thiol-containing compound", "value": 4.8}
    ]},
    {"smiles": "O=C([O-])CS.[Na+]", "note": "[sodium thioglycolate]", "values": [
      {"measurement": "pKSH / pK of the thiol-containing compound", "value": 10.3}
    ]}
  ]
}
